{
  "source": "patent US6284746A",
  "about": "(Chinoin, Ltd., priority 1993, dated 2001)",
  "key": {"[1]": {"assay": "Solubility of taxol with soluble anionic-β-cyclodextrin polymer CDPSI (Example 4)", "assay_type": "physicochemical"}, "[2]": {"assay": "Solubilizing of taxol with HPBCD (Example 5)", "assay_type": "physicochemical", "source_text": "Taxol was solubilized and formulated with 2-hydroxypropylated β-cyclodextrin. (HPBCD)."}, "[3]": {"conditions": "cited from earlier work"}, "[4]": {"conditions": "background statement; cited from earlier work"}, "[5]": {"assay": "physchem", "conditions": "water"}, "[6]": {"assay": "physchem", "conditions": "40% aqueous dimethyl-beta-cyclodextrin", "procedure": "11.6 mg of Taxol (Sigma Chemicals Co. USA) is treated in 10 ml of 40% aqueous heptakis-2,6-di-O-methylated β-cyclodextrin at room temperature for 30 minutes, until a solution of slight haze is obtained."}, "[7]": {"assay": "physchem", "conditions": "pH 7.6", "procedure": "Randomly methylated β-cyclodextrin (average degree of substitution=1.8) was dissolved in physiological buffered saline (pH 7.6) at different concentrations and these solutions were incubated with the taxol substrate for 12 hours at room temperature. Each sample contained taxol in 5 mg/ml initial concentration. The suspensions after equilibration were membrane filtered and assayed for dissolved taxol by HPLC."}, "[8]": {"assay": "physchem", "source_text": "The suspension was filtered and the dissolved taxol determined by HPLC."}, "[9]": {"conditions": "25° C., 12 hours"}},
  "data": [
    {"smiles": "CC(=O)O[C@H]1C(=O)[C@@]2(C)[C@H]([C@H](OC(=O)c3ccccc3)[C@]3(O)C[C@H](OC(=O)[C@H](O)[C@@H](NC(=O)c4ccccc4)c4ccccc4)C(C)=C1C3(C)C)[C@]1(OC(C)=O)CO[C@@H]1C[C@@H]2O", "note": "(relative stereo) [taxol, [2aR-[2aα, 4β; 4αβ,6β,9α(αR*,βS*),11α-12α,12aα, 12bα]]-β-(Benzoylamino)-α-hydroxybenzene-propanoic acid 6,12-b-bis (acetyloxy)-12-(benzoyloxy)-2a,3,4,4a, 5,6,9,10,11,12,12a,12b-dodecahydro-4,11-dihyroxy-4a,8,13,13-tetramethyl-5-oxo-7,11-methano-1H-cyclodeca[3,4]-benz-[1,2-b]oxet-9-yl ester]", "values": [
      {"measurement": "solubility", "setting": "[1]; 0% cdpsi, CDPSI 0%", "value": 0.6, "unit": "µg/mL"},
      {"measurement": "solubility", "setting": "[1]; 1% cdpsi solution, CDPSI 1%", "value": 1.8, "unit": "µg/mL"},
      {"measurement": "solubility", "setting": "[1]; 5% cdpsi solution, CDPSI 5%", "value": 3.5, "unit": "µg/mL"},
      {"measurement": "solubility", "setting": "[1]; 10% cdpsi solution, CDPSI 10%", "value": 10.6, "unit": "µg/mL"},
      {"measurement": "solubility", "setting": "[1]; 40% cdpsi solution, CDPSI 40%", "value": 56.8, "unit": "µg/mL"},
      {"measurement": "solubility", "setting": "[2]; 0.5% hpbcd solution, HPBCD 0.5%", "value": 1, "unit": "µg/mL"},
      {"measurement": "solubility", "setting": "[2]; 1% hpbcd solution, HPBCD 1%", "value": 1.7, "unit": "µg/mL"},
      {"measurement": "solubility", "setting": "[2]; 5% hpbcd solution, HPBCD 5%", "value": 6.8, "unit": "µg/mL"},
      {"measurement": "solubility", "setting": "[2]; 10% hpbcd solution, HPBCD 10%", "value": 34.9, "unit": "µg/mL"},
      {"measurement": "solubility", "setting": "[2]; 40% hpbcd solution, HPBCD 40%", "value": 100, "unit": "µg/mL"},
      {"measurement": "solubility", "setting": "[2]; HPBCD none", "value": 0.6, "unit": "µg/mL"},
      {"measurement": "stability of taxol", "setting": "[3]; Bartoli et al., background", "value": "generally poor stability"},
      {"measurement": "sensitivity to light and pH", "setting": "[3]; background statement", "value": "very sensitive to light and the pH"},
      {"measurement": "solubility of taxol", "setting": "[3]; glycosyl- and maltosyl-β-cyclodextrins with ethanol and ethylacetate (Mikuni 1993)", "value": "20 to 110", "unit": "µg/mL"},
      {"measurement": "antitumor activity", "setting": "[4]", "value": "significant antitumor activity"},
      {"measurement": "products of decomposition, biological activity", "setting": "[4]", "value": "biologically inactive products are forming"},
      {"measurement": "solubility", "setting": "[5]", "value": "0.55 to 0.59", "unit": "µg/mL"},
      {"measurement": "solubility at 0.5 h", "setting": "[6]", "value": "992 to 1000", "unit": "µg/mL"},
      {"measurement": "solubility thermodynamic at 12 h", "setting": "[7]; 1% rameb in buffered saline", "value": 4.4, "unit": "µg/mL"},
      {"measurement": "solubility thermodynamic at 12 h", "setting": "[7]; 5% rameb in buffered saline", "value": 42.5, "unit": "µg/mL"},
      {"measurement": "solubility thermodynamic at 12 h", "setting": "[7]; 10% rameb in buffered saline", "value": 232, "unit": "µg/mL"},
      {"measurement": "solubility thermodynamic at 12 h", "setting": "[7]; 40% rameb in buffered saline", "value": 860, "unit": "µg/mL"},
      {"measurement": "solubility thermodynamic at 12 h", "setting": "[7]; buffered saline", "value": 0.6, "unit": "µg/mL"},
      {"measurement": "solubility thermodynamic at 12 h", "setting": "[8]; 10% aqueous succinyl-methyl-β-cyclodextrin", "value": 244, "unit": "µg/mL"},
      {"measurement": "solubility thermodynamic at 12 h", "setting": "[8]; 40% succinyl-methyl-β-cyclodextrin solution", "value": 993, "unit": "µg/mL"}
    ]},
    {"smiles": "CC(=O)O[C@@]12CO[C@@H]1C[C@H](O)[C@@]1(C)C(=O)[C@H](O)C3=C(C)[C@@H](OC(=O)[C@H](O)[C@@H](NC(=O)OC(C)(C)C)c4ccccc4)C[C@@](O)([C@@H](OC(=O)c4ccccc4)[C@H]21)C3(C)C", "note": "[Taxotere, butoxycarbonyl-10-deacetyl-N-debenzoyl taxol]", "values": [
      {"measurement": "solubility enhancement relative to free taxol derivative in water", "setting": "[9]", "value": 850, "unit": "times"}
    ]}
  ]
}
